Test results from the supplement of paper PMC10307832.

How the values were obtained:
Assay in all cases: relative viability (nuclei count vs DMSO), 5 days (fraction); higher = more cells survive
XMD13-2 + Navitoclax = compound: C1CC1C(=O)NC2=NNC3=C2C=CC(=C3)C4=CC(=CC=C4)C(=O)NC5CC5 [XMD13-2] + CC1(C)CCC(c2ccc(Cl)cc2)=C(CN2CCN(c3ccc(C(=O)NS(=O)(=O)c4ccc(N[C@H](CCN5CCOCC5)CSc5ccccc5)c(S(=O)(=O)C(F)(F)F)c4)cc3)CC2)C1 [Navitoclax] (partner 0.5 µM)
Method in brief: (§1)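 Relative viability is defined as nuclei in treated wells over nuclei in vehicle wells. Duplicate plates were run and medians reported. Lung cancer cell lines in 1536-well plates were dosed by pin tool one day after seeding, with one drug or with a fixed anchor-drug dose plus five library-drug doses (not always all listed) in √10 steps, and nuclei were counted after 5 days.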

XMD13-2 + Linsitinib = compound: C1CC1C(=O)NC2=NNC3=C2C=CC(=C3)C4=CC(=CC=C4)C(=O)NC5CC5 [XMD13-2] + C[C@]1(O)C[C@@H](c2nc(-c3ccc4ccc(-c5ccccc5)nc4c3)c3c(N)nccn32)C1 [Linsitinib] (partner 1 µM)
Method in brief: as §1

Dasatinib + Foretinib = compound: Cc1nc(Nc2ncc(C(=O)Nc3c(C)cccc3Cl)s2)cc(N2CCN(CCO)CC2)n1 [Dasatinib] + COc1cc2c(Oc3ccc(NC(=O)C4(C(=O)Nc5ccc(F)cc5)CC4)cc3F)ccnc2cc1OCCCN1CCOCC1 [Foretinib] (partner 0.25 µM)
Method in brief: as §1

ALW-II-49-7 + Vorinostat = compound: Cc1ccc(C(=O)Nc2cccc(C(F)(F)F)c2)cc1Nc1cncc(C(N)=O)c1 [ALW-II-49-7] + O=C(CCCCCCC(=O)Nc1ccccc1)NO [Vorinostat] (partner 1 µM)
Method in brief: as §1

| Cell Line | relative viability (XMD13-2 + Navitoclax; first compound 0.05 µM) | relative viability (XMD13-2 + Navitoclax; first compound 0.1581 µM) | relative viability (XMD13-2 + Navitoclax; first compound 0.5 µM) | relative viability (XMD13-2 + Navitoclax; first compound 1.581 µM) | relative viability (XMD13-2 + Navitoclax; first compound 5 µM) | relative viability (XMD13-2 + Linsitinib; first compound 0.05 µM) | relative viability (XMD13-2 + Linsitinib; first compound 0.1581 µM) | relative viability (XMD13-2 + Linsitinib; first compound 0.5 µM) | relative viability (XMD13-2 + Linsitinib; first compound 1.581 µM) | relative viability (XMD13-2 + Linsitinib; first compound 5 µM) | relative viability (Dasatinib + Foretinib; first compound 0.005 µM) | relative viability (Dasatinib + Foretinib; first compound 0.01581 µM) | relative viability (Dasatinib + Foretinib; first compound 0.05 µM) | relative viability (Dasatinib + Foretinib; first compound 0.1581 µM) | relative viability (Dasatinib + Foretinib; first compound 0.5 µM) | relative viability (ALW-II-49-7 + Vorinostat; first compound 0.08 µM) | relative viability (ALW-II-49-7 + Vorinostat; first compound 0.253 µM) | relative viability (ALW-II-49-7 + Vorinostat; first compound 0.8 µM) | relative viability (ALW-II-49-7 + Vorinostat; first compound 2.53 µM) | relative viability (ALW-II-49-7 + Vorinostat; first compound 8 µM) |
| --- | --- | --- | --- | --- | --- | --- | --- | --- | --- | --- | --- | --- | --- | --- | --- | --- | --- | --- | --- | --- |
| NCI-H520 | 1.17 | 1.2 | 1.08 | 1.01 | 0.501 | 1.09 | 0.975 | 1.01 | 0.881 | 0.492 | 0.631 | 0.427 | 0.36 | 0.175 | 0.175 | 0.782 | 0.649 | 0.681 | 0.696 | 0.617 |
| NCI-H1993 | 0.911 | 0.834 | 0.884 | 0.845 | 0.673 | 0.807 | 0.78 | 0.731 | 0.743 | 0.694 | 0.641 | 0.59 | 0.561 | 0.472 | 0.496 | 0.843 | 0.72 | 0.837 | 0.828 | 0.796 |
| NCI-H1437 | 1.12 | 1.09 | 1.09 | 1.05 | 1.09 | 1.25 | 1.09 | 1.08 | 1.04 | 1.06 | 1.25 | 1.23 | 1.32 | 1.07 | 0.848 | 0.831 | 0.926 | 0.822 | 0.756 | 0.699 |
| LC-2-ad | 0.772 | 0.503 | 0.519 | 0.368 | 0.375 | 0.927 | 0.924 | 0.826 | 0.769 | 0.831 | 1.04 | 0.802 | 0.473 | 0.369 | 0.293 | 0.681 | 0.763 | 0.691 | 0.698 | 0.528 |
| HARA | 1.1 | 1.08 | 1.16 | 1.13 | 1.14 | 0.934 | 0.931 | 0.944 | 0.972 | 1.07 | 0.826 | 0.504 | 0.541 | 0.207 | 0.136 | 0.608 | 0.597 | 0.634 | 0.594 | 0.58 |
| NCI-H1975 | 1.17 | 1.28 | 1.01 | 1.02 | 1.18 | 1.08 | 0.926 | 0.968 | 0.972 | 1.07 | 0.918 | 0.817 | 0.722 | 0.439 | 0.225 | 0.713 | 0.686 | 0.643 | 0.66 | 0.542 |
| NCI-H2085 | 1.25 | 1.14 | 1.16 | 1.18 | 1.1 | 0.894 | 0.819 | 0.873 | 0.984 | 0.963 | 0.855 | 0.783 | 0.338 | 0.198 | 0.173 | 0.787 | 0.899 | 0.718 | 0.817 | 0.702 |
| NCI-H3122 | 0.996 | 1.02 | 1.02 | 1.01 | 1.01 | 1.02 | 1.01 | 1.04 | 1.06 | 0.951 | 0.932 | 0.871 | 0.955 | 0.942 | 0.567 | 1.06 | 0.907 | 0.854 | 1.15 | 0.987 |
| NCI-H1651 | 1.28 | 1.04 | 1 | 1.2 | 0.947 | 0.964 | 0.961 | 1.05 | 1.07 | 1.01 | 0.81 | 0.666 | 0.673 | 0.646 | 0.445 | 0.576 | 0.665 | 0.579 | 0.54 | 0.555 |
| NCI-H441 | 0.93 | 0.685 | 0.715 | 0.615 | 0.762 | 0.771 | 0.415 | 0.558 | 0.64 | 0.398 | 1.06 | 0.988 | 1.02 | 0.701 | 0.382 | 0.669 | 0.788 | 0.901 | 0.549 | 0.538 |
| NCI-H2126 | 0.909 | 0.867 | 0.831 | 0.813 | 0.845 | 0.697 | 0.693 | 0.755 | 0.662 | 0.703 | 1.18 | 0.799 | 1.2 | 0.852 | 0.425 | 0.8 | 0.877 | 0.778 | 0.71 | 0.707 |
| RERF-LC-KJ | 1.14 | 1.03 | 0.674 | 1 | 0.733 | 0.916 | 0.89 | 0.947 | 0.817 | 0.871 | 0.888 | 0.831 | 0.989 | 0.824 | 0.779 | 0.646 | 0.731 | 0.653 | 0.755 | 0.646 |
| NCI-H1666 | 0.886 | 1.03 | 0.881 | 0.905 | 0.92 | 0.869 | 0.804 | 0.741 | 0.818 | 0.86 | 1.12 | 0.989 | 1.07 | 0.862 | 0.425 | 0.903 | 1.07 | 1.11 | 0.971 | 1 |
| PC-14 | 0.972 | 1.1 | 0.999 | 0.973 | 1 | 0.986 | 1.04 | 0.958 | 0.878 | 0.927 | 0.981 | 0.948 | 0.912 | 0.712 | 0.335 | 0.474 | 0.544 | 0.668 | 0.562 | 0.588 |
| NCI-H1915 | 0.801 | 0.781 | 0.806 | 0.835 | 0.853 | 1.15 | 1.13 | 1.07 | 1.1 | 1.09 | 1.05 | 0.804 | 0.957 | 0.431 | 0.298 | 0.585 | 0.483 | 0.498 | 0.348 | 0.256 |
